Assay results: ChEMBL document CHEMBL2203269, “Target-Activated Prodrugs (TAPs) for the Autoregulated Inhibition of MMP12” (ACS Med Chem Lett, 2012)
Active and inactive are the calls of the source. The rule behind the calls is not given here.

Columns and labels:
[1] = target: T1, Matrilysin (Homo sapiens) (UniProt P09237); assay: Activity at MMP7
T1 sequence (whole entry): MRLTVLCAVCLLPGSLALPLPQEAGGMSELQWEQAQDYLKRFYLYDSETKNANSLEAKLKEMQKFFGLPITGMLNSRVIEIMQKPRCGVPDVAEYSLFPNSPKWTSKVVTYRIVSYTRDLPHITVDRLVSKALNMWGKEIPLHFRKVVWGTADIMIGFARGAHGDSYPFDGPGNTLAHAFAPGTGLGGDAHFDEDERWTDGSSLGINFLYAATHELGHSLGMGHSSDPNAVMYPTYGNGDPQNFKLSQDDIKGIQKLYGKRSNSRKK

[2] = target: T2, Interstitial collagenase (Homo sapiens) (UniProt P03956); assay: Activity at MMP1
T2 sequence (whole entry): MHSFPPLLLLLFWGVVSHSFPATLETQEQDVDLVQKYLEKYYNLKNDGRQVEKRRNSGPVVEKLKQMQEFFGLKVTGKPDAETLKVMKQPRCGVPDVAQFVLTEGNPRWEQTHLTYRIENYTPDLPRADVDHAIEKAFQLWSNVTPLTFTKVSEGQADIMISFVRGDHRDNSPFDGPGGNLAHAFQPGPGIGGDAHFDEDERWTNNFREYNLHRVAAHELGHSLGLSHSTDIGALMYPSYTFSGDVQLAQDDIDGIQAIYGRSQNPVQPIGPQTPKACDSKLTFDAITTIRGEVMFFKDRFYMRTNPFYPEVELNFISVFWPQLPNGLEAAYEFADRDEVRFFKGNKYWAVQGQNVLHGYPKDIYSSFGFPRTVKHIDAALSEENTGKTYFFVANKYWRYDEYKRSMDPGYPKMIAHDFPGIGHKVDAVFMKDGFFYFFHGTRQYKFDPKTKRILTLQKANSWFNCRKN

[3] = target: 72 kDa type IV collagenase (Homo sapiens) (UniProt P08253); assay: Activity at MMP2
Chain of 72 kDa type IV collagenase (Homo sapiens) (P08253 110-660 limits assumed): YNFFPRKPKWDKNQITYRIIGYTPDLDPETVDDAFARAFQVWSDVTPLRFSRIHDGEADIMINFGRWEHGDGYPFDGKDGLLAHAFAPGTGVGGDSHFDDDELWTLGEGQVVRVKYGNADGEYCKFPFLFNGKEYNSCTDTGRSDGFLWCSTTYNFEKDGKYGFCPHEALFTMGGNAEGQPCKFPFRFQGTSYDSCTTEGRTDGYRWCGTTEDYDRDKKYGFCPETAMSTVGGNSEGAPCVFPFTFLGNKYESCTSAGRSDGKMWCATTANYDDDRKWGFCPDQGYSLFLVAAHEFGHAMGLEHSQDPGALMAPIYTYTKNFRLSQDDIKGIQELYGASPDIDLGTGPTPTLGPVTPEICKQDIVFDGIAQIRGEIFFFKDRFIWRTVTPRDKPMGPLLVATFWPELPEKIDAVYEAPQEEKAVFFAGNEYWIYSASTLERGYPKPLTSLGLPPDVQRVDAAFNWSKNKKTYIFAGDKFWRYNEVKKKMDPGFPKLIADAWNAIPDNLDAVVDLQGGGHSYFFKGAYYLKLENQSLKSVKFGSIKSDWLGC

Activity [1]: Active
Activity [2]: Active
Activity [3]: Active
Compound: CC(C)C[C@H](NC(=O)CN(C(=O)[C@H](CC(C)C)NC(=O)[C@@H]1CCCN1C(=O)OCc1ccccc1)S(=O)(=O)c1ccc(-c2ccccc2)cc1)C(=O)N[C@@H](CCC(=O)O)C(=O)N[C@@H](CCC(=O)O)C(=O)N[C@@H](C)C(N)=O
